Structures can show the parent of a compound that is named as a salt.

The target of the assay is T1, human M1 receptor (hCHRM1) (Homo sapiens, UniProt P11229).
T1 construct: expressed in transfected cells
T1 sequence (P11229 1-460): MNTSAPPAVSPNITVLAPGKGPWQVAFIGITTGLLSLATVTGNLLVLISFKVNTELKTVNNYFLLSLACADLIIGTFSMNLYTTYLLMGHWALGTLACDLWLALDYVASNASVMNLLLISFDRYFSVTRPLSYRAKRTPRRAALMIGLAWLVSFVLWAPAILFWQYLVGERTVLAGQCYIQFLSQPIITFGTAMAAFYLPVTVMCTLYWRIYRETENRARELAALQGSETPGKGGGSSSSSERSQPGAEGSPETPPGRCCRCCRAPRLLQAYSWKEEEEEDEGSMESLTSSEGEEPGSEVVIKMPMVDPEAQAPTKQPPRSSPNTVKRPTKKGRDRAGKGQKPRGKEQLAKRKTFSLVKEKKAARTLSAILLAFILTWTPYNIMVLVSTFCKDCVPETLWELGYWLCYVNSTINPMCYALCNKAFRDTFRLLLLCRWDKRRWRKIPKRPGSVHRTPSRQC
Put plainly: Measurement of M1 receptor positive allosteric modulator (M1PAM) activity, calcium fluorescence (FLIPRtetra). Format: cell-based. Particulars: 10 μM test compound with acetylcholine at EC20 (final 0.6-0.8 nM); 100% = acetylcholine 1 μM, 0% = DMSO; CHO-K1 cells expressing hCHRM1. As to the method:
Measurement of M1 Receptor Positive Allosteric Modulator (M1PAM) Activity
The activity of a test compound in the presence of acetylcholine at EC20 concentration (final concentration 0.6-0.8 nM), which affords an action corresponding to about 20% of the maximum activity, was measured as PAM activity. The method is as follows. CHO-K1 cells stably expressing a human M1 receptor (hCHRM1) were plated on a 384-well black clear bottom plate (BD Falcon) at 5,000 cells/well, and cultured in an incubator at 37° C., 5% CO2 for 1 day. The medium in the cell plate was removed, and assay buffer A containing calcium indicator (Recording medium (DOJINDO LABORATORIES), 0.1% BSA (Wako Pure Chemical Industries, Ltd.), 2.5 μg/mL Fluo-4 AM (DOJINDO LABORATORIES), 0.08% Pluronic F127 (DOJINDO LABORATORIES), 1.25 mM probenecid (DOJINDO LABORATORIES)) was added at 30 μL/well. The cells were left standing in the incubator at 37° C., 5% CO2 for 30 min, and further left standing at room temperature for 30 min. A test compound prepared by diluting with assay buffer B (HBSS (Invitrogen), 20 mM HEPES (Invitrogen), 0.1% BSA) containing 2.4-3.2 nM acetylcholine was added at 10 μL/well, and the fluorescence was measured by FLIPRtetra (Molecular Devices) for 1 min every for 1 second. With the definition that the amount of change in the fluorescence on addition of acetylcholine (final concentration 1 μM) is 100% and that on addition of DMSO instead of a test compound is 0%, the activity (%) of the test compound was calculated, and the inflection point in the concentration-dependent curve of the test compound was calculated as IP values.
For `Cc1cnc(C(=O)N[C@H]2CCCC[C@@H]2O)cc1Cc1ccc(-n2cccn2)cc1` (relative stereo) [Example 4, N-(trans-2-hydroxycyclohexyl)-5-methyl-4-(4-(1H-pyrazol-1-yl)benzyl)pyridine-2-carboxamide], the “activity (%) at 10 μM” value was determined as 98%. The same measure for `COc1cnc(C(=O)N[C@H]2CCCC[C@@H]2O)cc1Cc1ccc(-c2cnn(C)c2)nc1` (relative stereo) [Example 58, N-(trans-2-hydroxycyclohexyl)-5-methoxy-4-((6-(1-methyl-1H-pyrazol-4-yl)pyridin-3-yl)methyl)pyridine-2-carboxamide]: 89%; for `Cc1cnc(C(=O)N[C@H]2COCC[C@@H]2O)cc1Cc1ccc(-c2ccn(C)n2)cc1` [Example 2, 1,5-anhydro-2,4-dideoxy-2-(((5-methyl-4-(4-(1-methyl-1H-pyrazol-3-yl)benzyl)pyridin-2-yl)carbonyl)amino)-L-threo-pentitol]: 100%. On to `Cc1cnc(C(=O)N[C@H]2CCC[C@@H]2O)cc1Cc1ccc(-n2cccn2)cc1` [Example 5, N-((1S,2S)-2-hydroxycyclopentyl)-5-methyl-4-(4-(1H-pyrazol-1-yl)benzyl)pyridine-2-carboxamide], for which the “activity (%) at 10 μM” value turned out to be 91%.

On to `O=C(N[C@H]1CCCC[C@@H]1O)c1cc(Cc2ccc(-n3cccn3)cc2)c(Cl)cn1` [Example 6, 5-chloro-N-((1S,2S)-2-hydroxycyclohexyl)-4-(4-(1H-pyrazol-1-yl)benzyl)pyridine-2-carboxamide], for which the “activity (%) at 10 μM” value was 108%. On to `O=C(N[C@H]1CCC[C@@H]1O)c1cc(Cc2ccc(-n3cccn3)cc2)c(Cl)cn1` [Example 7, 5-chloro-N-((1S,2S)-2-hydroxycyclopentyl)-4-(4-(1H-pyrazol-1-yl)benzyl)pyridine-2-carboxamide], for which the “activity (%) at 10 μM” value is reported as 104%. On to `O=C(N[C@H]1COCC[C@@H]1O)c1cc(Cc2ccc(-n3cccn3)cc2)c(Cl)cn1` [Example 8, 1,5-anhydro-2-(((5-chloro-4-(4-(1H-pyrazol-1-yl)benzyl)pyridin-2-yl)carbonyl)amino)-2,4-dideoxy-L-threo-pentitol Hydrochloride], for which the “activity (%) at 10 μM” value was determined as 92%.

As for `Cc1cnc(C(=O)N[C@H]2CCCC[C@@H]2O)cc1Cc1ccc(-c2ccn(C)n2)cc1` [Example 9, N-((1S,2S)-2-hydroxycyclohexyl)-5-methyl-4-(4-(1-methyl-1H-pyrazol-3-yl)benzyl)pyridine-2-carboxamide], the “activity (%) at 10 μM” value came out at 91%. With `Cc1cnc(C(=O)N[C@H]2CCCC[C@@H]2O)cc1Cc1ccc(-c2ccn(C)n2)cc1F` [Example 10, 4-(2-fluoro-4-(1-methyl-1H-pyrazol-3-yl)benzyl)-N-((1S,2S)-2-hydroxycyclohexyl)-5-methylpyridine-2-carboxamide], the “activity (%) at 10 μM” value came to 89%. With `Cc1cnc(C(=O)N[C@H]2CCC[C@@H]2O)cc1Cc1ccc(-c2ccn(C)n2)cc1F` [Example 11, 4-(2-fluoro-4-(1-methyl-1H-pyrazol-3-yl)benzyl)-N-((1S,2S)-2-hydroxycyclopentyl)-5-methylpyridine-2-carboxamide], the “activity (%) at 10 μM” value is 98%. `Cc1cnc(C(=O)N[C@H]2CCCC[C@@H]2O)cc1Cc1ccc(-n2cccn2)cc1F` [Example 12, 4-(2-fluoro-4-(1H-pyrazol-1-yl)benzyl)-N-((1S,2S)-2-hydroxycyclohexyl)-5-methylpyridine-2-carboxamide]: the “activity (%) at 10 μM” value amounted to 113%. Take `Cc1cnc(C(=O)N[C@H]2CCC[C@@H]2O)cc1Cc1ccc(-n2cccn2)cc1F` [Example 13, 4-(2-fluoro-4-(1H-pyrazol-1-yl)benzyl)-N-((1S,2S)-2-hydroxycyclopentyl)-5-methylpyridine-2-carboxamide]: the “activity (%) at 10 μM” value is 92%. On to `Cc1cnc(C(=O)N[C@H]2CCC[C@@H]2O)cc1Cc1ccc(-c2cn(C)nc2C)cc1` [Example 14, 4-(4-(1,3-dimethyl-1H-pyrazol-4-yl)benzyl)-N-((1S,2S)-2-hydroxycyclopentyl)-5-methylpyridine-2-carboxamide Dihydrochloride], for which the “activity (%) at 10 μM” value worked out at 100%. Consider `Cc1cnc(C(=O)N[C@H]2CCCC[C@@H]2O)cc1Cc1ccc(-c2cn(C)nc2C)cc1` [Example 15, 4-(4-(1,3-dimethyl-1H-pyrazol-4-yl)benzyl)-N-((1S,2S)-2-hydroxycyclohexyl)-5-methylpyridine-2-carboxamide], for which the “activity (%) at 10 μM” value was determined as 107%. The same measure for `Cc1cnc(C(=O)N[C@H]2COCC[C@@H]2O)cc1Cc1ccc(-c2ccn(C)n2)cc1F` [Example 16, 1,5-anhydro-2,4-dideoxy-2-(((4-(2-fluoro-4-(1-methyl-1H-pyrazol-3-yl)benzyl)-5-methylpyridin-2-yl)carbonyl)amino)-L-threo-pentitol]: 91%; for `Cc1cnc(C(=O)N[C@H]2COCC[C@@H]2O)cc1Cc1ccc(-n2cccn2)cc1F` [Example 17, 1,5-anhydro-2,4-dideoxy-2-(((4-(2-fluoro-4-(1H-pyrazol-1-yl)benzyl)-5-methylpyridin-2-yl)carbonyl)amino)-L-threo-pentitol]: 98%; for `COC1CCCCC1NC(=O)c1cc(Cc2ccc(-c3ccn(C)n3)cc2)c(C)cn1` (centres unmarked) [Example 18, N-(2-methoxycyclohexyl)-5-methyl-4-(4-(1-methyl-1H-pyrazol-3-yl)benzyl)pyridine-2-carboxamide]: 105%. Turning to `COc1ccc(Cc2cc(C(=O)N[C@H]3CCCC[C@@H]3O)ncc2C)cc1` [Example 19, N-((1S,2S)-2-hydroxycyclohexyl)-4-(4-methoxybenzyl)-5-methylpyridine-2-carboxamide], the “activity (%) at 10 μM” value is listed as 104%.

In the case of `Cc1cnc(C(=O)NC2(CO)CCCC2)cc1Cc1ccc(-c2ccn(C)n2)cc1` [Example 20, N-(1-(hydroxymethyl)cyclopentyl)-5-methyl-4-(4-(1-methyl-1H-pyrazol-3-yl)benzyl)pyridine-2-carboxamide], the “activity (%) at 10 μM” value is 75%. Regarding `Cc1cnc(C(=O)NC2CCOCC2O)cc1Cc1ccc(-c2ccn(C)n2)cc1` (centres unmarked) [Example 21, 1,5-anhydro-2,3-dideoxy-3-(((5-methyl-4-(4-(1-methyl-1H-pyrazol-3-yl)benzyl)pyridin-2-yl)carbonyl)amino)pentitol], the “activity (%) at 10 μM” value worked out at 89%. As for `Cc1cnc(C(=O)NC2CC2(F)F)cc1Cc1ccc(-c2ccn(C)n2)cc1` (centres unmarked) [Example 22, N-(2,2-difluorocyclopropyl)-5-methyl-4-(4-(1-methyl-1H-pyrazol-3-yl)benzyl)pyridine-2-carboxamide], the “activity (%) at 10 μM” value is reported as 77%. In the case of `Cc1cnc(C(=O)NC2(CO)CC2)cc1Cc1ccc(-c2ccn(C)n2)cc1` [Example 23, N-(1-(hydroxymethyl)cyclopropyl)-5-methyl-4-(4-(1-methyl-1H-pyrazol-3-yl)benzyl)pyridine-2-carboxamide], the “activity (%) at 10 μM” value is on record as 84%. `Cc1cnc(C(=O)N[C@H]2c3ccccc3C[C@H]2O)cc1Cc1ccc(-c2ccn(C)n2)cc1` [Example 24, N-((1S,2R)-2-hydroxy-2,3-dihydro-1H-inden-1-yl)-5-methyl-4-(4-(1-methyl-1H-pyrazol-3-yl)benzyl)pyridine-2-carboxamide]: the “activity (%) at 10 μM” value is given as 87%. To `Cc1cnc(C(=O)NC2CC(F)(F)CCC2O)cc1Cc1ccc(-c2ccn(C)n2)cc1` (centres unmarked) [Example 25, N-(5,5-difluoro-2-hydroxycyclohexyl)-5-methyl-4-(4-(1-methyl-1H-pyrazol-3-yl)benzyl)pyridine-2-carboxamide] belongs 85%; to `Cc1cnc(C(=O)NC2COC2)cc1Cc1ccc(-c2ccn(C)n2)cc1` [Example 26, 5-methyl-4-(4-(1-methyl-1H-pyrazol-3-yl)benzyl)-N-(oxetan-3-yl)pyridine-2-carboxamide], 59%; to `Cc1cnc(C(=O)NC2CCOCC2)cc1Cc1ccc(-c2ccn(C)n2)cc1` [Example 27, 5-methyl-4-(4-(1-methyl-1H-pyrazol-3-yl)benzyl)-N-(tetrahydro-2H-pyran-4-yl)pyridine-2-carboxamide], 88%.

For the origin of these results see patent US10214508B2, “Nitrogen-containing heterocyclic compound” (Takeda Pharmaceutical Company Limited, priority 2014, dated 2019).
